This is an account of results in ChEMBL document CHEMBL1201862, “PubChem BioAssay data set” (2004).

Molecules are shown by their SMILES.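 1) Cells in 96-well plates. 2) Compound, 48 h, 5 concentrations. 3) Linear interpolation between surrounding doses. 4) Unreached endpoint = highest concentration. At the GI50, growth is halved.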 The source made the active and inactive calls. Rule as the data show it: active = GI50 up to about 1.1 µM and inactive = higher. Where a SMILES comes first, the peptide text is derived from it. [ ]: non-standard residue; d: D form. The star is where a group is joined. ξ: configuration not given here. X4 = COc1ccc(C(N*)c2ccc(OC)cc2)cc1; NMeF = CN[C@@H](Cc1ccccc1)C(=O)O; NMeD = CN[C@@H](CC(=O)O)C(=O)O; NMeV = CN[C@H](C(=O)O)C(C)C; ξNMeV = CNC(C(=O)O)C(C)C; Boc = CC(C)(C)OC(=O)*; ξNMeA = CNC(C)C(=O)O; ξV = CC(C)C(N)C(=O)O Some results are limits rather than exact numbers.

Test systems include Hs-578T; LOX IMVI; MOLT-4; NCI-H226; SK-OV-3; SK-MEL-28; U-251; CCRF-CEM; EKVX; COLO 205; OVCAR-5; IGROV-1; ACHN; SN12C; T47D; A498; UACC-257; SR; SF-268; SNB-75.
Assay in all cases: NCI anticancer screen, dose series, 48 h

For `O=C1C(c2ccccc2)=C(c2ccccc2)C1(Cl)Cl`, the GI50 was 3.56 µM (inactive) in the experiment with Hs-578T; 1.93 µM (inactive) in the experiment on LOX IMVI; 2.55 µM (inactive) in the experiment on MOLT-4; 3.07 µM (inactive) in the experiment with NCI-H226; 15.8 µM (inactive) in the experiment on SK-OV-3; 3.78 µM (inactive) in the experiment with SK-MEL-28. For the same compound, the GI50 with U-251 was 2.84 µM (inactive); with CCRF-CEM, 1.01 µM (active); with EKVX it was 5.04 µM (inactive); with COLO 205 it was 2.59 µM (inactive); in the experiment with OVCAR-5 it was 7.82 µM (inactive); in the experiment on IGROV-1, 3.95 µM (inactive). Also, the GI50 was 2.64 µM (inactive) in the experiment with ACHN; 2.87 µM (inactive) in the experiment with SN12C; 3.18 µM (inactive) in the experiment with T47D; 5.21 µM (inactive) in the experiment with A498; 2.71 µM (inactive) in the experiment on UACC-257; 2.04 µM (inactive) in the experiment with SR. In addition, the GI50 in the experiment with SF-268 is 2.99 µM (inactive); with SNB-75, 4.95 µM (inactive).

As to `CSC(=N/C=C/c1ccccc1)SC`, the GI50 in the experiment with Hs-578T was 68.1 µM (inactive); in the experiment on LOX IMVI, 50.5 µM (inactive); with MOLT-4, > 100 µM (inactive); in the experiment with NCI-H226 it was > 100 µM (inactive); in the experiment with SK-OV-3, > 100 µM (inactive); in the experiment on SK-MEL-28, > 100 µM (inactive). Also, the GI50 with U-251 was > 100 µM (inactive); with CCRF-CEM, 98.9 µM (inactive); in the experiment with EKVX, > 100 µM (inactive); in the experiment on COLO 205, > 100 µM (inactive); in the experiment on OVCAR-5, > 100 µM (inactive); with IGROV-1, 73.6 µM (inactive). The GI50 in the experiment with ACHN, in the experiment on SN12C, in the experiment on T47D, in the experiment with A498, in the experiment on UACC-257 and in the experiment on SR was > 100 µM (inactive) throughout. For the same compound, the GI50 with SF-268 and in the experiment with SNB-75 was > 100 µM (inactive) throughout.

Take `CCOC(=O)n1ccc2c(C(=O)OC)c(C(=O)OC)cc(/C(=C/C(=O)OC)C(=O)OC)c21`: the GI50 is > 100 µM (inactive) with Hs-578T; > 100 µM (inactive) with LOX IMVI; 32.1 µM (inactive) in the experiment on MOLT-4; > 100 µM (inactive) in the experiment with NCI-H226; > 100 µM (inactive) with SK-OV-3; > 100 µM (inactive) in the experiment on SK-MEL-28. The GI50 with U-251 was > 100 µM (inactive); in the experiment with CCRF-CEM, 10.4 µM (inactive); in the experiment on EKVX, > 100 µM (inactive); in the experiment with COLO 205 it was > 100 µM (inactive); in the experiment on OVCAR-5, > 100 µM (inactive); in the experiment with IGROV-1, > 100 µM (inactive). Moreover, the GI50 in the experiment on ACHN is > 100 µM (inactive); with SN12C, > 100 µM (inactive); with T47D, 74.5 µM (inactive); with A498, > 100 µM (inactive); in the experiment with UACC-257 it was > 100 µM (inactive); in the experiment on SR it was 79.8 µM (inactive). The GI50 with SF-268 and in the experiment on SNB-75 was > 100 µM (inactive) in each case.

On to `CC(C)/C(Cl)=N/OC(=O)Nc1ccc(OC(F)(F)F)cc1`, for which the GI50 is 15.8 µM (inactive) in the experiment on Hs-578T; 2.1 µM (inactive) with LOX IMVI; 2.86 µM (inactive) in the experiment on MOLT-4; 11.1 µM (inactive) in the experiment with NCI-H226; 17.6 µM (inactive) in the experiment on SK-OV-3; 13.3 µM (inactive) in the experiment on SK-MEL-28. Moreover, the GI50 was 17.3 µM (inactive) in the experiment on U-251; 1.27 µM (inactive) with CCRF-CEM; 8.17 µM (inactive) in the experiment on EKVX; 1.84 µM (inactive) in the experiment on COLO 205; 15.6 µM (inactive) in the experiment with OVCAR-5; 16.5 µM (inactive) in the experiment on IGROV-1. For the same compound, the GI50 was 12.6 µM (inactive) in the experiment on ACHN; 16.4 µM (inactive) in the experiment with SN12C; 8.55 µM (inactive) in the experiment on T47D; 18.6 µM (inactive) with A498; 13.7 µM (inactive) in the experiment with UACC-257; 1.94 µM (inactive) in the experiment with SR. Also, the figures for the GI50 in the experiment with SF-268 and in the experiment on SNB-75 were 23.2 µM (inactive) and 15.6 µM (inactive), respectively.

Turning to `Cc1c(CNc2ccc(C(=O)NC(CC(=O)O)C(=O)O)cc2)ccc2nc(N)nc(N)c12` (configuration not stated), the GI50 in the experiment on Hs-578T is 684 µM (inactive); in the experiment on LOX IMVI it was < 0.01 µM (active); in the experiment with MOLT-4 it was < 0.0157 µM (active); in the experiment on NCI-H226, > 100 µM (inactive); in the experiment with SK-OV-3 it was 0.146 µM (active); in the experiment with SK-MEL-28 it was 1.7 µM (inactive). In addition, the GI50 in the experiment with U-251 is 0.0546 µM (active); in the experiment with CCRF-CEM, < 0.01 µM (active); with EKVX, > 100 µM (inactive); in the experiment on COLO 205, > 9.42 µM (inactive); in the experiment with IGROV-1, < 0.01 µM (active); in the experiment with ACHN it was < 0.01 µM (active). Moreover, the GI50 is 0.0499 µM (active) in the experiment on SN12C; > 100 µM (inactive) with T47D; 0.219 µM (active) in the experiment on A498; 0.605 µM (active) in the experiment on UACC-257; < 0.0296 µM (active) in the experiment with SR; < 0.01 µM (active) in the experiment on SF-268. Besides, in the experiment on SNB-75, the GI50 is 32.5 µM (inactive).

With `COc1ccc(C(NC(=O)C[C@@H](C(=O)N(C)C(C)C(=O)O)N(C)C(=O)[C@@H]2CCCN2C(=O)[C@H](C(C)C)N(C)C(=O)C(C(C)C)N(C)C(=O)[C@H](Cc2ccccc2)N(C)C(=O)C(NC(=O)OC(C)(C)C)C(C)C)c2ccc(OC)cc2)cc1` (some centres not stated) (Boc-[ξV][NMeF][ξNMeV][NMeV]P[NMeD](X4)[ξNMeA]-OH), the GI50 in the experiment on Hs-578T was 2.56 µM (inactive); in the experiment with LOX IMVI it was 7.66 µM (inactive); in the experiment on MOLT-4, 8.39 µM (inactive); in the experiment on NCI-H226, 7.64 µM (inactive); in the experiment with SK-OV-3, > 37.5 µM (inactive); in the experiment on SK-MEL-28 it was 7.62 µM (inactive). The GI50 in the experiment on U-251 is 9.75 µM (inactive); in the experiment with CCRF-CEM, 7.43 µM (inactive); with EKVX it was 25.6 µM (inactive); in the experiment on COLO 205, 20.4 µM (inactive); with OVCAR-5 it was > 37.5 µM (inactive); in the experiment on IGROV-1, 8.43 µM (inactive). In addition, the GI50 in the experiment on ACHN is 36.9 µM (inactive); with SN12C, 25.5 µM (inactive); in the experiment on T47D, 11.9 µM (inactive); in the experiment on A498, > 37.5 µM (inactive); with UACC-257, 9.75 µM (inactive); in the experiment with SR, 15.6 µM (inactive). In addition, the GI50 with SF-268 is 7.53 µM (inactive); in the experiment with SNB-75 it was 4.24 µM (inactive).

As for `Cc1cn(CC2=NCC(C)(C)N2)c(=O)[nH]c1=O`, the GI50 in the experiment on Hs-578T, in the experiment with LOX IMVI, in the experiment with MOLT-4, in the experiment on NCI-H226, in the experiment on SK-OV-3 and in the experiment with SK-MEL-28 was > 100 µM (inactive) each time. Also, the GI50 in the experiment with U-251 is > 100 µM (inactive); in the experiment on CCRF-CEM, < 0.01 µM (active); with EKVX it was > 100 µM (inactive); in the experiment on COLO 205, > 100 µM (inactive); in the experiment with OVCAR-5, > 100 µM (inactive); in the experiment with IGROV-1, > 100 µM (inactive). Moreover, the GI50 in the experiment with ACHN, with SN12C, with T47D, in the experiment on A498, with UACC-257 and with SR was > 100 µM (inactive) each time. Also, the GI50 with SF-268 and in the experiment on SNB-75 was > 100 µM (inactive) each time.

Regarding `Oc1nc2nnc(COc3ccc(Cl)cc3Cl)n2nc1Cc1ccccc1`, the GI50 was 51.6 µM (inactive) in the experiment with Hs-578T; > 100 µM (inactive) in the experiment with LOX IMVI; > 100 µM (inactive) with MOLT-4; 25.1 µM (inactive) in the experiment on NCI-H226; 27.4 µM (inactive) with SK-OV-3; > 100 µM (inactive) with SK-MEL-28. Moreover, the GI50 was 23.8 µM (inactive) in the experiment on U-251; 33 µM (inactive) in the experiment with CCRF-CEM; > 100 µM (inactive) in the experiment on EKVX; > 100 µM (inactive) with COLO 205; > 100 µM (inactive) in the experiment on OVCAR-5; 24.2 µM (inactive) with IGROV-1. Also, the GI50 with ACHN is 41.8 µM (inactive); in the experiment on SN12C, 57.1 µM (inactive); in the experiment with T47D, 37.8 µM (inactive); in the experiment on A498, 31.3 µM (inactive); with UACC-257 it was > 100 µM (inactive); with SR it was 36.7 µM (inactive). The figures for the GI50 with SF-268 and in the experiment on SNB-75 were 63.4 µM (inactive) and 16 µM (inactive), respectively.

In the case of `CCOc1cc(C2SCC(=O)N2c2nc3cc4sc(N5C(=O)CSC5c5ccc(O)c(OCC)c5)nc4cc3s2)ccc1O` (configuration not stated), the GI50 in the experiment with Hs-578T was > 47.1 µM (inactive); with LOX IMVI, 38.3 µM (inactive); in the experiment with MOLT-4, 4.61 µM (inactive); in the experiment with NCI-H226, 23.6 µM (inactive); in the experiment with SK-OV-3, > 100 µM (inactive); in the experiment with SK-MEL-28, > 100 µM (inactive). The GI50 is 26.5 µM (inactive) in the experiment with U-251; 4.16 µM (inactive) in the experiment on CCRF-CEM; 67.3 µM (inactive) in the experiment with EKVX; 4.8 µM (inactive) in the experiment with COLO 205; > 100 µM (inactive) in the experiment with OVCAR-5; 15.9 µM (inactive) in the experiment on IGROV-1. Moreover, the GI50 in the experiment on ACHN was > 48.4 µM (inactive); in the experiment with SN12C it was > 31.5 µM (inactive); in the experiment on T47D it was 40.2 µM (inactive); in the experiment with A498 it was 48.6 µM (inactive); with SR, 5.85 µM (inactive); in the experiment on SF-268, > 68.2 µM (inactive). In the experiment with SNB-75, the GI50 is > 100 µM (inactive).

Consider `CC1(CCC2C=CCC2)CCCNC1=S` (configuration not stated), for which the GI50 with Hs-578T, in the experiment with LOX IMVI, in the experiment on MOLT-4, in the experiment on NCI-H226, in the experiment on SK-OV-3 and in the experiment on SK-MEL-28 was > 10 µM (inactive) each time. Further, the GI50 in the experiment on U-251, in the experiment with CCRF-CEM, in the experiment with EKVX, in the experiment on OVCAR-5, in the experiment on IGROV-1 and with ACHN was > 10 µM (inactive) throughout. The GI50 in the experiment on SN12C, in the experiment on T47D, in the experiment on A498, with UACC-257, in the experiment on SR and with SF-268 was > 10 µM (inactive) in each case. The GI50 with SNB-75 is > 10 µM (inactive).
